Like-named read-outs stand apart in the source and are kept apart here.
Tests used:
[1] = target: T1, GDP loaded biotinylated KRas^G12C protein (Homo sapiens, UniProt P01116, G12C); assay: KRasG12C functional assay; assay type: biochemical; conditions: HTRF FRET readout of SOS-mediated nucleotide exchange and GST-Raf RBD binding, samples incubated for 4 hrs
T1 construct: biotin (biotinylated); made in house
Method: KRasG12C Functional Assay
All enzyme and substrate solutions were prepared in assay buffer containing 20 mM HEPES (pH 7.5), 5 mM MgCl2, 150 mM NaCl, and 0.01% Tween 20. […] In a separate mix 20 nM GST-Raf Ras binding domain (GST-Raf RBD, purified in house) and 4 μg/ml anti-GST XL665 antibody (Cisbio) was prepared in assay buffer containing 50 mM Potassium Fluoride and 0.05 mg/ml BSA and equilibrated for 4 hours before adding 0.6 μM Guanosine 5′-[γ-thio]triphosphate (GTPγS, Sigma) and 0.08 μM SOS (purified in house). 5 μl of the GST-RAF RBD mix was then dispensed into each well of the assay plate. […] This is detected simultaneously via the specific binding interaction between active GTPγS KRas^G12C with GST-Raf RBD which brings the europium and XL665 into close proximity enabling an increased FRET signal to be detected on a Pherastar (BMG) plate reader equipped with the HTRF filter module. […] IC50 values were calculated from normalised dose-response response FRET data curve fitted in Genedata screener (Basel, Switzerland).

[2] = target: T1, GDP loaded biotinylated KRas^G12C protein; assay: KRasG12C mass spectrometry adducting assay; assay type: binding; conditions: test compound final concentration 10 μM, 4 μM KRasG12C, react for 4 hours
Method: KRasG12C Mass Spectrometry Adducting Assay
Enzyme solutions were prepared in assay buffer containing 20 mM HEPES (pH 7.5), 5 mM MgCl2, and 150 mM NaCl. […] The plate was sealed before reading on a Xevo G2 QTOF (Waters) and Acquity LC system (Waters). […] Blank samples were run in between each test sample.
Data was analysed in Mass Lynx software (Waters), the Total ion count (TIC) trace was used and the eluted protein peak data combined. Using the combined spectrum the data was deconvoluted using MaxEnt1 method. The peak area for apo-protein KRas^G12C (APO) and KRAS+relative cmpd mass (adduct) were measured, and a percentage adduct was calculated using the following calculation:
Percent adduct=100*(area of adduct peak/(sum of APO+adduct peaks)

[3] = KRasG12C functional assay IC50 value (μM)
[4] = read-out: KRasG12C functional assay IC50 value

T1 sequence (P01116 1-188 isoform P01116-2 G12C): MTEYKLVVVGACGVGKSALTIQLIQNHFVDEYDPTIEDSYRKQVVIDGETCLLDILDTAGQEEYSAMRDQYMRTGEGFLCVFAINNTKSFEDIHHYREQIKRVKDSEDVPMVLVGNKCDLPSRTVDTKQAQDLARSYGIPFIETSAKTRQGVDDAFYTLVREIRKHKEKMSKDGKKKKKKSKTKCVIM

Row | KRasG12C M.S. Binding Mean adduct % [2] | IC50 [1, 4] | SMILES | IC50 [1, 3]
1 | 30% | 0.244 µM | C=CC(=O)N1CCN2c3ncnc4cc(-c5c(O)cccc5F)c(Cl)c(c34)OC[C@@H]2C1 (single isomer, unassigned) [Example 10] | –
2 | 92% | 0.097 µM | C=CC(=O)N1CCN2c3ncnc4cc(-c5c(O)cccc5F)c(Cl)c(c34)OC[C@@H]2C1 (single isomer, unassigned) [Example 11] | –
3 | 12% | 22.7 µM | C=CC(=O)N1CCN2c3ncnc4cc(-c5c(O)cccc5Cl)c(Cl)c(c34)OC[C@@H]2C1 (single isomer, unassigned) [Example 15] | –
4 | 100% | 0.032 µM | C=CC(=O)N1CCN2c3ncnc4cc(-c5c(O)cccc5Cl)c(Cl)c(c34)OC[C@@H]2C1 (single isomer, unassigned) [Example 16] | –
5 | 0% | > 100 µM | C=CC(=O)N1CCN2c3ncnc4cc(-c5c(O)cccc5OC)c(Cl)c(c34)OC[C@@H]2C1 (single isomer, unassigned) [Example 17] | –
6 | 100% | 0.868 µM | C=CC(=O)N1CCN2c3ncnc4cc(-c5c(O)cccc5OC)c(Cl)c(c34)OC[C@@H]2C1 (single isomer, unassigned) [Example 18] | –
7 | 0% | 41.8 µM | C=CC(=O)N1CCN2c3ncnc4cc(-c5c(O)cccc5C#N)c(Cl)c(c34)OC[C@@H]2C1 (single isomer, unassigned) [Example 19] | –
8 | 100% | 0.191 µM | C=CC(=O)N1CCN2c3ncnc4cc(-c5c(O)cccc5C#N)c(Cl)c(c34)OC[C@@H]2C1 (single isomer, unassigned) [Example 20] | –
9 | 83% | 0.226 µM | C=CC(=O)N1CCN2c3nc(N4CCOCC4)nc4cc(-c5c(C)ccc6[nH]ncc56)c(Cl)c(c34)OC[C@@H]2C1 (single isomer, unassigned) [Example 71] | –
10 | 5% | 39.4 µM | C=CC(=O)N1CCN2c3nc(N4CCOCC4)nc4cc(-c5c(C)ccc6[nH]ncc56)c(Cl)c(c34)OC[C@@H]2C1 (single isomer, unassigned) [Example 72] | –
11 | 8% | 1.9 µM | C=CC(=O)N1CCN2c3nc(NC4CCN(C5CC5)CC4)nc4cc(-c5c(C)ccc6[nH]ncc56)c(Cl)c(c34)OC[C@@H]2C1 (single isomer, unassigned) [Example 73] | –
12 | 94% | 0.012 µM | C=CC(=O)N1CCN2c3nc(NC4CCN(C5CC5)CC4)nc4cc(-c5c(C)ccc6[nH]ncc56)c(Cl)c(c34)OC[C@@H]2C1 (single isomer, unassigned) [Example 74] | –
13 | 0% | 22.4 µM | C=CC(=O)N1CCN2c3nc(N4CC(N(C)C)C4)nc4cc(-c5c(C)ccc6[nH]ncc56)c(Cl)c(c34)OC[C@@H]2C1 (single isomer, unassigned) [Example 76] | –
14 | 100% | 0.021 µM | C=CC(=O)N1CCN2c3nc(N4CC(N(C)C)C4)nc4cc(-c5c(C)ccc6[nH]ncc56)c(Cl)c(c34)OC[C@@H]2C1 (single isomer, unassigned) [Example 77] | –
15 | 0% | 1.72 µM | C=CC(=O)N1CCN2c3nc(NCCN(C)C)nc4cc(-c5c(C)ccc6[nH]ncc56)c(Cl)c(c34)OC[C@@H]2C1 (single isomer, unassigned) [Example 79] | –
16 | 90% | 0.018 µM | C=CC(=O)N1CCN2c3nc(NCCN(C)C)nc4cc(-c5c(C)ccc6[nH]ncc56)c(Cl)c(c34)OC[C@@H]2C1 (single isomer, unassigned) [Example 80] | –
17 | 100% | 0.012 µM | C=CC(=O)N1CCN2c3ncnc4cc(-c5c(C)ccc6[nH]ncc56)c(Cl)c(c34)OCC[C@@H]2C1 (single isomer, unassigned) [Example 81] | –
18 | 26% | 0.166 µM | C=CC(=O)N1CCN2c3ncnc4cc(-c5c(C)ccc6[nH]ncc56)c(Cl)c(c34)OCC[C@@H]2C1 (single isomer, unassigned) [Example 82] | –
19 | 74% | 0.518 µM | Cc1ccc2[nH]ncc2c1-c1cc2ncnc3c2c(c1Cl)OC[C@@H]1CN(C(=O)/C=C/CN(C)C)CCN31 [Example 4, (E)-1-((8aS)-6-Chloro-5-(5-methyl-1H-indazol-4-yl)-8a,9,11,12-tetrahydropyrazino[2′,1′:3,4][1,4]oxazepino[5,6,7-de]quinazolin-10 (8H)-yl)-4-(dimethylamino)but-2-en-1-one] | –
20 | 91% | 0.798 µM | C=CC(=O)N1CCN2c3ncnc4cc(-c5c(C)ccc6[nH]ncc56)cc(c34)OC[C@@H]2C1 [Example 5, 1-[(8aS)-5-(5-Methyl-1H-indazol-4-yl)-8a,9,11,12-tetrahydropyrazino[2′,1′:3,4][1,4]-oxazepino[5,6,7-de]quinazolin-10 (8H)-yl]prop-2-en-1-one] | –
21 | 68% | 2.37 µM | C=CC(=O)N1CCN2c3ncnc4cc(-c5c(C)ccc6[nH]ncc56)cc(c34)OC[C@H]2C1 [Example 6, 1-[(8aR)-5-(5-Methyl-1H-indazol-4-yl)-8a,9,11,12-tetrahydropyrazino[2′,1′:3,4]-[1,4]oxazepino[5,6,7-de]quinazolin-10 (8H)-yl]prop-2-en-1-one] | –
22 | 81% | 0.324 µM | C=CC(=O)N1CCN2c3ncnc4c(Cl)c(-c5c(C)ccc6[nH]ncc56)cc(c34)OC[C@@H]2C1 [Example 8, 1-[(8aS)-4-Chloro-5-(5-methyl-1H-indazol-4-yl)-8a,9,11,12-tetrahydropyrazino-[2′,1′:3,4][1,4]oxazepino[5,6,7-de]quinazolin-10 (8H)-yl]prop-2-en-1-one] | –
23 | 100% | 0.124 µM | C=CC(=O)N1CCN2c3ncnc4cc(-c5c(O)cccc5F)c(Cl)c(c34)OC[C@@H]2C1 [Example 9, 1-[(8aS)-6-Chloro-5-(2-fluoro-6-hydroxyphenyl)-8a,9,11,12-tetrahydropyrazino-[2′,1′:3,4][1,4]oxazepino[5,6,7-de]quinazolin-10 (8H)-yl]prop-2-en-1-one] | –
24 | 76% | 0.381 µM | CN(C)C/C=C/C(=O)N1CCN2c3ncnc4cc(-c5c(O)cccc5F)c(Cl)c(c34)OC[C@@H]2C1 [Example 12, (E)-1-((8aS)-6-Chloro-5-(2-fluoro-6-hydroxyphenyl)-8a,9,11,12-tetrahydropyrazino[2′,1′:3,4][1,4]oxazepino[5,6,7-de]quinazolin-10 (8H)-yl)-4-(dimethylamino)but-2-en-1-one] | –
25 | – | 0.029 µM | C=CC(=O)N1CCN2c3ncnc4c(F)c(-c5c(O)cccc5F)c(Cl)c(c34)OC[C@@H]2C1 [Example 69, 1-((8aS)-6-chloro-4-fluoro-5-(2-fluoro-6-hydroxyphenyl)-8a,9,11,12-tetrahydro-pyrazino[2′,1′:3,4][1,4]oxazepino[5,6,7-de]quinazolin-10 (8H)-yl)prop-2-en-1-one] | –

Row | SMILES | KRasG12C M.S. Binding Mean adduct % [2] | IC50 [1, 4] | IC50 [1, 3]
26 | C=CC(=O)N1CCN2c3ncnc4cc(-c5c(C)ccc6[nH]ncc56)c(Cl)c(c34)OC[C@@H]2C1 (single isomer, unassigned) [Example 2] | 2% | – | 38.9 µM
27 | C=CC(=O)N1CCN2c3ncnc4cc(-c5c(C)ccc6[nH]ncc56)c(Cl)c(c34)OC[C@@H]2C1 (single isomer, unassigned) [Example 3] | 96% | – | 0.082 µM
28 | C=CC(=O)N1CCN2c3ncnc4cc(-c5c(C)ccc6[nH]ncc56)c(Cl)c(c34)OC[C@@H]2C1 [Example 1, 1-[(8aS)-6-Chloro-5-(5-methyl-1H-indazol-4-yl)-8a,9,11,12-tetrahydropyrazino-[2′,1′:3,4][1,4]oxazepino[5,6,7-de]quinazolin-10 (8H)-yl]-2-propen-1-one] | 95% | – | 0.102 µM
29 | C=CC(=O)N1CCN2c3ncnc4cc(-c5c(C)ccc6[nH]ncc56)c(Cl)c(c34)OC[C@H]2C1 [Example 7, 1-[(8aR)-6-Chloro-5-(5-methyl-1H-indazol-4-yl)-8a,9,11,12-tetrahydropyrazino-[2′,1′:3,4][1,4]oxazepino[5,6,7-de]quinazolin-10 (8H)-yl]prop-2-en-1-one] | 95% | – | 0.214 µM
